Source: PMC9027581, “Characterization of Constituents with Potential Anti-Inflammatory Activity in Chinese Lonicera Species by UHPLC-HRMS Based Metabolite Profiling” (Metabolites, 2022)

Key:
NF-κB = assay: NF-κB-driven luciferase reporter gene transactivation in TNF-α-stimulated HEK293/NF-κB-luc cells; format: cell-based; conditions: for NFκB % Inhibition (30 µM) / inhibition at 30 µM / IC50: HEK/NFκB-luc cells stimulated with TNF-α; for NFκB % Inhibition (30 µM) / inhibition at 30 µM: means ± SD of 4 replicates; for effect on NF-κB activation: pure compound, screening 30 µM; for inhibition at 30 µM / IC50: Homo sapiens, HEK293
Procedure: (§1) To evaluate the pharmacological activity of the extracts, all extracts were assayed in three different cellular in vitro models that are relevant in the context of inflammation. […] In these cells, the potential impact of the extracts on cell viability was assessed (Figure 2C).
(§2) Assays were performed as previously described. Extracts were dissolved in dimethyl sulfoxide (DMSO) and further diluted in cell culture medium to obtain a final concentration of 50 µg/mL; DMSO at the respective final concentration (<0.1%) was used as vehicle control in each assay. OPLS-DA candidate compounds were also dissolved in DMSO to obtain a final screening concentration of 30 µM.
Transactivation activity of a NF-κB-driven luciferase reporter gene was determined in TNF-α (2 ng/mL)-stimulated HEK293/NF-κB-luc cells (Panomics, RC0014), using 5 µM parthenolide (Sigma-Aldrich, St. Louis, MO, USA) as positive control. Differences in cell viability were detected by comparing the fluorescence of vehicle-treated cells and cells treated with sample solutions upon staining with CellTracker Green CMFDA (C2925; Invitrogen), a fluorescent probe that is retained inside living cells. Screening samples were tested in three independent experiments, each performed in quadruplicate.
(§3) To determine the IC50 values, pure compounds showing significant inhibitory activity at the screening concentration were tested at 5–10 concentrations, each with 4 replicates.

IL-8 expression = IL-8 expression in LPS-stimulated HUVECtert cells; format: cell-based; conditions: for IL-8 % Inhibition (30 µM) / inhibition at 30 µM / IC50: HUVECtert cells stimulated with LPS; for IL-8 % Inhibition (30 µM) / inhibition at 30 µM: means ± SD of 5 replicates, b: one sample pooled from the 5 replicates; for effect on IL-8 expression: pure compound, screening 30 µM
Procedure: as §1, §2
[…] Impact of test samples on cell viability was determined after 6 h of stimulation by XTT. […] After incubation for 2 h, absorbance was measured at 450 nm. Samples decreasing cell viability by more than 30% were considered to negatively influence cell viability.
as §3

NO production = assay: NO release from LPS/IFN-γ-stimulated RAW 264.7 macrophages (Griess); format: cell-based, mouse; conditions: for NO % Inhibition (30 µM) / inhibition at 30 µM: means ± SD of 3 experiments in duplicates; for effect on NO production: pure compound, screening 30 µM
Procedure: as §1, §2
After removing 50 µL of the supernatants to react with Griess reagent (Sigma Aldrich), cells were incubated with XTT reagent (XTT proliferation kit II, Sigma Aldrich). NO production (Griess reaction) and metabolic activity of the cells (XTT formazan product) were photometrically measured. Tests were performed in three independent experiments, each in duplicate.
as §3

HUVECtert cells = assay: Cell viability of HUVECtert cells (XTT); format: cell-based; parameters: key: ^+ compound significantly impaired cell viability at concentration of 30 µM; conditions: 30 µM, decrease of viability by more than 30%
Procedure: Effects on IL-8 expression were tested in hTERT-immortalized HUVECtert cells stimulated with lipopolysaccharide (LPS, 100 ng/mL, Sigma-Aldrich), with BAY 11-7082 (5 µM) as positive control. Activity screening was performed in sextuplicate. Impact of test samples on cell viability was determined after 6 h of stimulation by XTT. Incubation medium was removed, and 40 µL serum-free medium, containing XTT (Thermo Fisher Scientific, final concentration 200 µg/mL) and phenazine methyl sulfate (TCI Europe N.V., final concentration: 25 µM) were added to each well. After incubation for 2 h, absorbance was measured at 450 nm. Samples decreasing cell viability by more than 30% were considered to negatively influence cell viability.

[1] = LPS/IFNγ-stimulated RAW macrophages
[2] = Mus musculus, Macrophage, LPS/IFNγ-stimulated RAW macrophages

IC50 (NF-κB) [µM] | Structure (SMILES) | effect on NF-κB activation (NF-κB) | inhibition at 30 µM (NF-κB; 30 µM) [%] | inhibition at 30 µM (IL-8 expression; 30 µM) [%] | inhibition at 30 µM (NO production; [2]) [%] | other results
 | C=C[C@H]1[C@H](O[C@@H]2O[C@H](CO)[C@@H](O)[C@H](O)[C@H]2O)OC=C(C(=O)OC)[C@H]1CC(=O)O [Compound 4, Secoxyloganin, reference compound] |  |  |  |  | NFκB % Inhibition (30 µM) (NF-κB; 30 µM): −17.25 ± 9.25%; IL-8 % Inhibition (30 µM) (IL-8 expression; 30 µM): −0.96 ± 6.01%; NO % Inhibition (30 µM) (NO production; [1]): 5.85 ± 4.58%
 | O=c1cc(-c2ccc(O)c(O)c2)oc2cc(O[C@@H]3O[C@H](CO)[C@@H](O)[C@H](O)[C@H]3O)cc(O)c12 [Compound 7, luteolin-7-O-glucoside, reference compound] | no activity |  |  |  | NFκB % Inhibition (30 µM) (NF-κB; 30 µM): 0.68 ± 4.29%; IL-8 % Inhibition (30 µM) (IL-8 expression; 30 µM): 7.42 ± 2.04%; effect on IL-8 expression (IL-8 expression): no activity; NO % Inhibition (30 µM) (NO production; [1]): 4.68 ± 9.82%; effect on NO production (NO production): no activity
6.84 | O=c1cc(-c2ccc(O)c(O)c2)oc2cc(O)cc(O)c12 [Compound 18, luteolin, reference compound] |  | 95.83 ± 0.01 | 74.8 ± 2.15 | 56.4 ± 12.7 | IC50 (NO production; [2]): 31.8 µM
 | O=c1cc(-c2ccc(O)cc2)oc2cc(O)cc(O)c12 [Compound 21, apigenin] |  |  | 64.8 ± 3.03 | 24.3 ± 10.8 | IC50 (IL-8 expression): 18.9 µM
 | COc1cc(-c2cc(=O)c3c(OC)cc(O)cc3o2)cc(OC)c1OC [Compound 22, 7-hydroxy-5-methoxy-2-(3,4,5-trimethoxyphenyl)-chromen-4-one] |  | 51.1 ± 2.86 | 13.2 ± 2.49 | 8.22 ± 11.9 | effect on NF-κB activation (NF-κB; listed as 7-hydroxy-5,3′,4′,5′-tetramethoxyflavone): weak inhibition
 | O=c1cc(-c2ccc(O)cc2)oc2c(-c3c(O)cc(O)c4c(=O)cc(-c5ccc(O)cc5)oc34)c(O)cc(O)c12 [Compound 26, 5,7,5′,7,-Tetrahydroxy-2,2′-bis-(4-hydroxy-phenyl)-[8,8′]bichromenyl-4,4′-dione] |  | 3.42 ± 3.15 | -2.05 ± 3.02 | 9.61 ± 11.4 | 
19.6 | COc1cc(-c2cc(=O)c3c(O)cc(O)c(-c4c(O)cc(O)c5c(=O)cc(-c6ccc(O)cc6)oc45)c3o2)ccc1O [Compound 27, 5,7,5′,7,-Tetrahydroxy-2-(4-hydroxy3-methoxy-phenyl)-2′-(4-hydroxy-phenyl)-[8,8′]bichromenyl-4,4′-dione] | moderately inhibited | 78.1 ± 8.86 | 3.5 ± 4.58 | 1.45 ± 7.78 | 
 | COc1cc(-c2cc(=O)c3c(O)cc(O)c(-c4c(O)cc(O)c5c(=O)cc(-c6ccc(O)c(OC)c6)oc45)c3o2)ccc1O [Compound 29, 5,7,5′,7,-Tetrahydroxy-2,2′-bis-(4-hydroxy-3-methoxy-phenyl)-[8,8′]bichromenyl-4,4′-dione] |  | 31.2 ± 15.5 | 2.97 ± 9.92 | -0.85 ± 3.84 | NF-κB Activity (NF-κB; class from Table 5 data, 30 µM): (a)
6.45 | O=c1cc(-c2ccc(O)c(-c3c(O)cc(O)c4c(=O)cc(-c5ccc(O)cc5)oc34)c2)oc2cc(O)cc(O)c12 [Compound 32, amentoflavone, reference compound] | potently inhibited | 90.8 ± 3.43 | 9.35 ± 2.78 | 7.06 ± 10.6 | 
3.44 | COc1ccc(-c2cc(=O)c3c(O)cc(O)c(-c4cc(-c5cc(=O)c6c(O)cc(O)cc6o5)ccc4O)c3o2)cc1 [Compound 33, podocarpusflavone A, reference compound] | potently inhibited | 99.2 ± 1.25 | 40.2 ± 29.8 | 3.42 ± 3.94 | IC50 (IL-8 expression): 47.9 µM; effect on IL-8 expression (IL-8 expression): moderately inhibited
3.04 | C=Cc1c(C)c2cc3nc(c4c5[nH]c(cc6nc(cc1[nH]2)C(C)=C6CC)c(C)c5C(=O)[C@@H]4C(=O)OC)[C@@H](CCC(=O)O)[C@@H]3C [Compound 52, pheophorbide A, reference compound] | pronounced inhibition | 74.7 ± 13.6 | 95.8 | 5.48 ± 7.55 | IL-8 Activity (IL-8 expression; class from Table 5 data, 30 µM): a/ct; effect on IL-8 expression (IL-8 expression): inhibited IL-8 production; effect on NO production (NO production): did not inhibit; impaired cell viability (flag, IL-8 assay) (HUVECtert cells): +
